Patent US20110143948A1, “MOLECULAR SIGNATURES AND BIOMARKERS ASSOCIATED WITH MELANOMA AND METHODS OF USE THEREOF” (priority 2008, published 2011)

Test system: ncRNAs (SEQ ID NO 28-89)
Assay: ncRNA arrays of melanocytes, keratinocytes, normal skin, melanoma cell lines and patient samples
Set-up: species or system human
Settings: for ncRNA array expression, patient 2: melanoma patient 2 sample compared to normal skin; for ncRNA array expression, patient 3: melanoma patient 3 sample compared to normal skin; for ncRNA array expression, patient 4: melanoma patient 4 sample compared to normal skin; for ncRNA array expression, patient 5: melanoma patient 5 sample compared to normal skin; for ncRNA array expression, patient 6: melanoma patient 6 sample compared to normal skin; for ncRNA array expression, patient 7: melanoma patient 7 sample compared to normal skin; for ncRNA array expression, patient 8: melanoma patient 8 sample compared to normal skin; for ncRNA array expression, patient 9: melanoma patient 9 sample compared to normal skin; for ncRNA array expression, patient 10: melanoma patient 10 sample compared to normal skin; for ncRNA array expression, patient 19: melanoma patient 19 sample compared to normal skin; for ncRNA array expression, patient 20: melanoma patient 20 sample compared to normal skin; for ncRNA array expression, patient 21: melanoma patient 21 sample compared to normal skin; for ncRNA array expression, patient 22: melanoma patient 22 sample compared to normal skin; for ncRNA array expression, patient 23: melanoma patient 23 sample compared to normal skin; for ncRNA array expression, patient 24: melanoma patient 24 sample compared to normal skin; for ncRNA array expression, patient 25: melanoma patient 25 sample compared to normal skin; for ncRNA array expression, patient 26: melanoma patient 26 sample compared to normal skin; for ncRNA array expression, patient 27: melanoma patient 27 sample compared to normal skin; for ncRNA array expression, patient 28: melanoma patient 28 sample compared to normal skin; for ncRNA array expression, patient 29: melanoma patient 29 sample compared to normal skin; for ncRNA array expression, patient 30: melanoma patient 30 sample compared to normal skin
Description: An ncRNA array platform that contains over 10,000 putative (>200 nt) ncRNAs including most of the known ncRNAs in mouse and human was conducted to evaluate ncRNAs within melanoma. Lack of coding potential was estimated by an algorithm that scores various characteristics of protein-coding genes, including open reading frame length, synonymous/non-synonymous base substitution rates and similarity to known proteins. These arrays provide the first generation of tools designed to analyze the dynamic expression of a large subset of ncRNAs in human and mouse and to identify candidate genes for more detailed functional analysis. In addition to the ncRNA content, probes targeting mRNA content from RefSeq are also included, allowing discovery of coordinated expression with associated protein-coding genes. The result of these assays is a list of ncRNA genes (i.e. SEQ ID NO 28-89) and maps of their sequence boundaries. We have profiled total RNA isolated from melanocytes, keratinocytes, normal human skin, melanoma cell lines and melanoma patient samples to identify differentially expressed ncRNAs in cell lines and tissues. ncRNAs expression in all tested samples were compared to either melanocytes or normal skin. We have identified a group of ncRNAs that are specific for (a) melanocytes (b) Keratinocytes (c) Melanoma cell lines (d) Melanoma patients. […] Probe DNA sequences for this array include: AF086032 (SEQ ID NO 107) […] BC071821 (SEQ ID NO 108) […] C AK130193 (SEQ ID NO 109) […] AL109719 (SEQ ID NO 110) […] AF085888 (SEQ ID NO 111) […] T BC033879 (SEQ ID NO 112) […] AA AK024556 (SEQ ID NO 113) […] Probe nomenclature is standard genebank IDs given by NCBI and other organizations.
Keratinocytes specific signatures were subtracted and resultant ncRNAs were validated by qRT-PCR and Northern blots. Results point out the presence of a group of melanoma specific ncRNAs (i.e. SEQ ID NO 28-89).

In the case of “SEQ ID NO 36 (TATTTGTGACTAACTGTATAACAGGTTATTTTAGTTTCTGTTCTGTGGGAAGTGTAAAGC; listed as DNA, chemistry not given here; listed as Homo sapiens)”, the “ncRNA array expression, patient 2” value is reported as 3.977, the “ncRNA array expression, patient 3” value is reported as 3.577 and the “ncRNA array expression, patient 4” value is reported as 4.181. The “ncRNA array expression, patient 5” value was 4.05, the “ncRNA array expression, patient 6” value was 3.52 and the “ncRNA array expression, patient 7” value was 4.601. For the same substance, the “ncRNA array expression, patient 8” value was 4.36, the “ncRNA array expression, patient 9” value was 3.565 and the “ncRNA array expression, patient 10” value was 2.818. For the same substance, the “ncRNA array expression, patient 19” value was 3.798, the “ncRNA array expression, patient 20” value was 4.669 and the “ncRNA array expression, patient 21” value was 3.909. For the same substance, the “ncRNA array expression, patient 22” value was 3.164, the “ncRNA array expression, patient 23” value was 2.96 and the “ncRNA array expression, patient 24” value was 3.815. For the same substance, the “ncRNA array expression, patient 25” value was 5.084, the “ncRNA array expression, patient 26” value was 4.401 and the “ncRNA array expression, patient 27” value was 4.909. For the same substance, the “ncRNA array expression, patient 28” value was 4.878, the “ncRNA array expression, patient 29” value was 4.381 and the “ncRNA array expression, patient 30” value was −1.698.

“SEQ ID NO 77 (AAGTTTCCACGGCAGGTTCTCGTAGCACCTTTGGTCAAGAACTGAAGGGGCCTTTAGATG; listed as DNA, chemistry not given here; listed as Homo sapiens)” was tested, and the “ncRNA array expression, patient 2” value was −2.141, the “ncRNA array expression, patient 3” value was −1.9159 and the “ncRNA array expression, patient 4” value was −2.042. The “ncRNA array expression, patient 5” value was −1.549, the “ncRNA array expression, patient 6” value was −0.8383 and the “ncRNA array expression, patient 7” value was −1.639. The “ncRNA array expression, patient 8” value was −1.644, the “ncRNA array expression, patient 9” value was −2.053 and the “ncRNA array expression, patient 10” value was −2.146. For the same substance, the “ncRNA array expression, patient 19” value was −0.2581, the “ncRNA array expression, patient 20” value was −1.526 and the “ncRNA array expression, patient 21” value was −1.23. The “ncRNA array expression, patient 22” value was −0.5892, the “ncRNA array expression, patient 23” value was 0.23 and the “ncRNA array expression, patient 24” value was −1.578. The “ncRNA array expression, patient 25” value was −2.219, the “ncRNA array expression, patient 26” value was −2.157 and the “ncRNA array expression, patient 27” value was −1.387. For the same substance, the “ncRNA array expression, patient 28” value was −1.165, the “ncRNA array expression, patient 29” value was −1.796 and the “ncRNA array expression, patient 30” value was 0.6447.

“SEQ ID NO 80 (CACACAGCCCAGTCTGCCTGTGATGGTAATATAAATCAAACCAGGGACCCAAGAGCCCAG; listed as DNA, chemistry not given here; listed as Homo sapiens)” was tested, and the “ncRNA array expression, patient 2” value was −1.594, the “ncRNA array expression, patient 3” value was −1.487 and the “ncRNA array expression, patient 4” value was −1.4489. For the same substance, the “ncRNA array expression, patient 5” value was −1.208, the “ncRNA array expression, patient 6” value was −0.982 and the “ncRNA array expression, patient 7” value was −1.213. The “ncRNA array expression, patient 8” value was −1.338, the “ncRNA array expression, patient 9” value was −1.383 and the “ncRNA array expression, patient 10” value was −1.815. For the same substance, the “ncRNA array expression, patient 19” value was −1.234, the “ncRNA array expression, patient 20” value was −2.056 and the “ncRNA array expression, patient 21” value was −1.5287. For the same substance, the “ncRNA array expression, patient 22” value was −0.7073, the “ncRNA array expression, patient 23” value was −0.1143 and the “ncRNA array expression, patient 24” value was −1.175. For the same substance, the “ncRNA array expression, patient 25” value was −1.992, the “ncRNA array expression, patient 26” value was −1.983 and the “ncRNA array expression, patient 27” value was −1.665. The “ncRNA array expression, patient 28” value was −1.4589, the “ncRNA array expression, patient 29” value was −1.489 and the “ncRNA array expression, patient 30” value was 0.1296.

With “SEQ ID NO 63 (CTCACACGCACCCTTTCACTGTTTCTTAGTAATTTGTTTGTCTACAGACACAGACGGGAA; listed as DNA, chemistry not given here; listed as Homo sapiens)” the “ncRNA array expression, patient 2” value was −1.694, the “ncRNA array expression, patient 3” value was −1.565 and the “ncRNA array expression, patient 4” value was −1.396. For the same substance, the “ncRNA array expression, patient 5” value was −1.315, the “ncRNA array expression, patient 6” value was −0.5921 and the “ncRNA array expression, patient 7” value was −1.305. The “ncRNA array expression, patient 8” value was −1.26, the “ncRNA array expression, patient 9” value was −1.429 and the “ncRNA array expression, patient 10” value was −1.417. For the same substance, the “ncRNA array expression, patient 19” value was −1.154, the “ncRNA array expression, patient 20” value was −1.232 and the “ncRNA array expression, patient 21” value was −1.397. For the same substance, the “ncRNA array expression, patient 22” value was −0.3562, the “ncRNA array expression, patient 23” value was −0.04699 and the “ncRNA array expression, patient 24” value was −1.093. For the same substance, the “ncRNA array expression, patient 25” value was −2.099, the “ncRNA array expression, patient 26” value was −2.008 and the “ncRNA array expression, patient 27” value was −1.525. For the same substance, the “ncRNA array expression, patient 28” value was −1.601, the “ncRNA array expression, patient 29” value was −1.862 and the “ncRNA array expression, patient 30” value was 1.622.

In the case of “SEQ ID NO 41 (CTCGTAACACTGGGAAAACTGCATACAATATTTAGAAGGAACACTAATACAGCAGAATCT; listed as DNA, chemistry not given here; listed as Homo sapiens)”, the “ncRNA array expression, patient 2” value is reported as −2.529, the “ncRNA array expression, patient 3” value is reported as −2.702 and the “ncRNA array expression, patient 4” value is reported as −2.655. For the same substance, the “ncRNA array expression, patient 5” value was −2.566, the “ncRNA array expression, patient 6” value was −2.676 and the “ncRNA array expression, patient 7” value was −2.596. For the same substance, the “ncRNA array expression, patient 8” value was −2.699, the “ncRNA array expression, patient 9” value was −2.456 and the “ncRNA array expression, patient 10” value was −2.262. For the same substance, the “ncRNA array expression, patient 19” value was −0.5732, the “ncRNA array expression, patient 20” value was −2.545 and the “ncRNA array expression, patient 21” value was −2.574. The “ncRNA array expression, patient 22” value was −2.212, the “ncRNA array expression, patient 23” value was −1.1449 and the “ncRNA array expression, patient 24” value was −2.6637. For the same substance, the “ncRNA array expression, patient 25” value was −2.4383, the “ncRNA array expression, patient 26” value was −2.458 and the “ncRNA array expression, patient 27” value was −2.204. The “ncRNA array expression, patient 28” value was −2.5405, the “ncRNA array expression, patient 29” value was −2.614 and the “ncRNA array expression, patient 30” value was 0.7101.

With “SEQ ID NO 29 (TTAAATACATGTTTCTAATATTTTAGTGTTTTGTATTTAGGTTATTTATTCTTTGTATCT; DNA, backbone and methylation of C not given here; listed as Homo sapiens)” the “ncRNA array expression, patient 2” value was 3.623, the “ncRNA array expression, patient 3” value was 2.485 and the “ncRNA array expression, patient 4” value was 3.452. For the same substance, the “ncRNA array expression, patient 5” value was 2.59, the “ncRNA array expression, patient 6” value was 1.012 and the “ncRNA array expression, patient 7” value was 2.658. For the same substance, the “ncRNA array expression, patient 8” value was 3.211, the “ncRNA array expression, patient 9” value was 2.109 and the “ncRNA array expression, patient 10” value was 2.287. For the same substance, the “ncRNA array expression, patient 19” value was 0.6625, the “ncRNA array expression, patient 20” value was 2.377 and the “ncRNA array expression, patient 21” value was 2.504. The “ncRNA array expression, patient 22” value was 1.796, the “ncRNA array expression, patient 23” value was 1.689 and the “ncRNA array expression, patient 24” value was 2.143. For the same substance, the “ncRNA array expression, patient 25” value was 3.284, the “ncRNA array expression, patient 26” value was 3.992 and the “ncRNA array expression, patient 27” value was 2.873. For the same substance, the “ncRNA array expression, patient 28” value was 2.81, the “ncRNA array expression, patient 29” value was 4.101 and the “ncRNA array expression, patient 30” value was −2.062.

In the case of “SEQ ID NO 60 (ACTAACAGCACTGGAGGGTGTAGTGTTTCCTACTTTATGGATGAGTGTACTGTGGGCTTC; listed as DNA, chemistry not given here; listed as Homo sapiens)”, the “ncRNA array expression, patient 2” value is reported as 2.776, the “ncRNA array expression, patient 3” value is reported as 2.279 and the “ncRNA array expression, patient 4” value is reported as 2.327. The “ncRNA array expression, patient 5” value was 0.8655, the “ncRNA array expression, patient 6” value was −1.218 and the “ncRNA array expression, patient 7” value was 2.958. The “ncRNA array expression, patient 8” value was 0.3154, the “ncRNA array expression, patient 9” value was 1.739 and the “ncRNA array expression, patient 10” value was 2.002. For the same substance, the “ncRNA array expression, patient 19” value was 0.3888, the “ncRNA array expression, patient 20” value was 2.119 and the “ncRNA array expression, patient 21” value was 0.7491. For the same substance, the “ncRNA array expression, patient 22” value was 3.236, the “ncRNA array expression, patient 23” value was 1.416 and the “ncRNA array expression, patient 24” value was 1.295. For the same substance, the “ncRNA array expression, patient 25” value was 1.226, the “ncRNA array expression, patient 26” value was 1.537 and the “ncRNA array expression, patient 27” value was 1.485. The “ncRNA array expression, patient 28” value was 0.6983, the “ncRNA array expression, patient 29” value was 1.398 and the “ncRNA array expression, patient 30” value was 0.02973.
